Test results reported in ChEMBL document CHEMBL1135277, “Beta-carbolines as specific inhibitors of cyclin-dependent kinases” (Bioorg Med Chem Lett, 2002).

Tests used:
[1] = molecular target: Cyclin-dependent kinase 2 (Homo sapiens) (UniProt P24941); assay: Percentage inhibition against cyclin dependent kinase 2 (CDK 2) at a concentration of 50 uM
[2] = molecular target: Tyrosine-protein kinase Fyn (Homo sapiens, UniProt P06241); assay: Inhibition of Fyn kinase
[3] = molecular target: Cyclin-dependent kinase 1/cyclin B (Homo sapiens, UniProt P06493); assay: Inhibition of Cell division cycle 2 (CDK1)-cyclin B; type: protein-complex assay
[4] = molecular target: Tyrosine-protein kinase Lyn (Homo sapiens, UniProt P07948); assay: Inhibition of Lyn tyrosine kinase
[5] = Inhibition of Mitogen-activated protein kinase
[6] = molecular target: Cyclin-dependent kinase 2/cyclin A (Homo sapiens, UniProt P24941); assay: Inhibition of Cyclin-dependent kinase 2-cyclin A; type: protein-complex assay
[7] = molecular target: Tyrosine-protein kinase Lck (Homo sapiens, UniProt P06239); assay: Inhibition of p56 Lck tyrosine kinase
Protein kinase C (PKC) = assay: Inhibition of protein kinase C; type: protein assay
[8] = molecular target: Cyclin-dependent kinase 5/CDK5 activator 1 (Homo sapiens, UniProt Q00535); assay: Inhibition of Cyclin-dependent kinase 5-p35nck5a; type: protein-complex assay
Cyclin-dependent kinase 5/CDK5 activator 1, sequence (Q00535 whole entry): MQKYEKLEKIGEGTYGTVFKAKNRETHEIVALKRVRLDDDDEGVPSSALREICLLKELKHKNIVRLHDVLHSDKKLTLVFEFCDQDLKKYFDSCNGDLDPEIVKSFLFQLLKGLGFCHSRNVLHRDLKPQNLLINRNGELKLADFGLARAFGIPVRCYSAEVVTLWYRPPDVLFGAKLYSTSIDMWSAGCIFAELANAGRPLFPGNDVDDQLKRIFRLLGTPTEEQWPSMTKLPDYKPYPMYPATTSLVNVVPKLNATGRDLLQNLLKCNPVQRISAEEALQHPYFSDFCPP
Cyclin-dependent kinase 5/CDK5 activator 1, sequence (Q15078 whole entry, further chain): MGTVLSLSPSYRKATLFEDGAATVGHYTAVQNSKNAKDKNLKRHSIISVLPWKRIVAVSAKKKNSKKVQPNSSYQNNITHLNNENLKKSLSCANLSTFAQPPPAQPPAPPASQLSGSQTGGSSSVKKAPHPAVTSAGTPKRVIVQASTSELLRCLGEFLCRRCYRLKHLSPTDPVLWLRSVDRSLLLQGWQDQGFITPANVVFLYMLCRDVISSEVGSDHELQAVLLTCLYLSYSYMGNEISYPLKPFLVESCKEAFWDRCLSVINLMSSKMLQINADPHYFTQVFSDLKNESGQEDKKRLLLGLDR

Tyrosine-protein kinase Fyn, sequence (P06241 whole entry): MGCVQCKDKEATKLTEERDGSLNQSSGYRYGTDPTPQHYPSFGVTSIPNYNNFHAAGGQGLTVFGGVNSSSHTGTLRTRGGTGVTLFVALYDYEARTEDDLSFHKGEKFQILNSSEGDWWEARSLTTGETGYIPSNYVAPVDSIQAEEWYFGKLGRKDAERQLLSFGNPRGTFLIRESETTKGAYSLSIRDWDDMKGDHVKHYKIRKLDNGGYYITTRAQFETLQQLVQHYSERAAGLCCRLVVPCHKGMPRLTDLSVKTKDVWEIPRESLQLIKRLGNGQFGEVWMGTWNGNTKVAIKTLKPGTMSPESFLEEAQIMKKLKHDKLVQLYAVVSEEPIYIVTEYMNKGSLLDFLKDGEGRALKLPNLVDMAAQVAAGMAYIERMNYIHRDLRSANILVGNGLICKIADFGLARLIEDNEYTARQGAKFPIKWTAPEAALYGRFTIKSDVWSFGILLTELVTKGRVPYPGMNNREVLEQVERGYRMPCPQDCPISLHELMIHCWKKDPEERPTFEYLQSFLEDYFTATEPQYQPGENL
Tyrosine-protein kinase Lyn, sequence (P07948 whole entry): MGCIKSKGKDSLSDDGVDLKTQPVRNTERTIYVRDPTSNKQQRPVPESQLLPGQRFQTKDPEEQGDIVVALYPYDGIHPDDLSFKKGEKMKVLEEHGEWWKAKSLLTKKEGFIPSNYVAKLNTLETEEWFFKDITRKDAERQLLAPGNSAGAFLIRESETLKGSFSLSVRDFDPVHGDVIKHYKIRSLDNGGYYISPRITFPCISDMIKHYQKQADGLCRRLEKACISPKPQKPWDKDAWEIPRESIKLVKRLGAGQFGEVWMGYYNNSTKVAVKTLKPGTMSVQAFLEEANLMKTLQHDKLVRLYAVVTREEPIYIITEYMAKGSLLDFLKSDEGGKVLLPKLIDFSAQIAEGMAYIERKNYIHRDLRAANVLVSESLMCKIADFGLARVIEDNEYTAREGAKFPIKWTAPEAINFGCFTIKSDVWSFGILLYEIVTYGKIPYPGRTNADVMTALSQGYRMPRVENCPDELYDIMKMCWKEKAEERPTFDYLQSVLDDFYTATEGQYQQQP
Tyrosine-protein kinase Lck, sequence (P06239 whole entry): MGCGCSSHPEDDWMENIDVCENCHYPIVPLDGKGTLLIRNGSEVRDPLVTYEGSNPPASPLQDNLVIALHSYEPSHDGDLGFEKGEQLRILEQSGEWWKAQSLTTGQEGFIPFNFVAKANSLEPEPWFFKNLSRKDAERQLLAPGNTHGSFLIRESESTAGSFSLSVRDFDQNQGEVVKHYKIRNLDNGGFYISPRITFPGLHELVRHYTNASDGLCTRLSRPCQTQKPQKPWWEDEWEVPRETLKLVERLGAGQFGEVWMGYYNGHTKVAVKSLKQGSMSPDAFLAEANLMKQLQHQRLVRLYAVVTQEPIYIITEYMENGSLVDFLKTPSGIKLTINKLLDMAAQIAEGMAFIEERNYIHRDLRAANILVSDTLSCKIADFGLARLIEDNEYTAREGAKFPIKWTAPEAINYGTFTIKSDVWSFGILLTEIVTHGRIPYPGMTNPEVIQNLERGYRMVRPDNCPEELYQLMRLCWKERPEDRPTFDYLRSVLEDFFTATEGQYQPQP

Row | SMILES | inhibition [1] [%] | other results
1 | CCc1nccc2c1[nH]c1cc(F)ccc12 | 54 | 
2 | Cc1nccc2c1[nH]c1cc(Oc3ncc(C(F)(F)F)cc3Cl)ccc12 | 10 | 
3 | O=[N+]([O-])c1ccc(-c2[nH]ccc3c4ccccc4nc2-3)cc1 | 31 | 
4 | Cc1ccc2c(c1)[nH]c1c(-c3ccccc3F)nccc12 | 36 | 
5 | Cc1nccc2c1[nH]c1cc(OCC(=O)OCc3ccccc3)ccc12 | 57 | 
6 | Cc1ccc2c(c1)[nH]c1c(C)nccc12 | 23 | 
7 | Fc1cccc(-c2nccc3c2[nH]c2ccccc23)c1 | 6 | 
8 | Fc1ccccc1-c1[nH]ccc2c3ccccc3nc1-2 | 64 | 
9 | Fc1ccc(-c2[nH]ccc3c4ccccc4nc2-3)c(F)c1 | 56 | 
10 | c1ccc(-c2nccc3c2[nH]c2ccccc23)cc1 | 13 | 
11 | Cc1nccc2c1[nH]c1cccc(C)c12 | 30 | 
12 | Cc1nccc2c1[nH]c1cc(F)ccc12 | 65 | IC50 [2]: > 250 µM; IC50 [3]: 42 µM; IC50 [4]: > 250 µM; IC50 [5]: > 250 µM; IC50 [6]: 30 µM; IC50 [7]: > 250 µM; IC50 (Protein kinase C (PKC)): > 250 µM
13 | Cc1nccc2c1[nH]c1ccc(OC(=O)c3ccccc3)cc12 | 2 | 
14 | COc1ccc2[nH]c3c(C)nccc3c2c1 | 2 | 
15 | Cc1[nH]cnc1-c1[nH]ccc2c3ccc(F)cc3nc1-2 | 51 | 
16 | O=[N+]([O-])c1ccc(Cl)c(-c2[nH]ccc3c4ccccc4nc2-3)c1 | 70 | IC50 [2]: > 250 µM; IC50 [3]: 45 µM; IC50 [4]: > 250 µM; IC50 [6]: 22 µM; IC50 (Protein kinase C (PKC)): > 250 µM; IC50 [8]: > 1200 µM
17 | O=[N+]([O-])c1ccc(-c2[nH]ccc3c4ccccc4nc2-3)cc1Cl | 4 | 
18 | CCCc1nccc2c1[nH]c1cc(F)ccc12 | 60 | 
19 | Fc1ccc2c(c1)[nH]c1c(-c3ccccc3F)nccc12 | 55 | 
20 | Cc1nccc2c1[nH]c1ccccc12 | 47 | 
21 | N#Cc1ccc(-c2nccc3c2[nH]c2ccccc23)cc1 | 29 | 

Row | SMILES | inhibition [1] [%] | other results
22 | c1ccc2c(c1)[nH]c1c(-c3c[nH]cn3)nccc12 | 30 | 
23 | CCCc1ncc(N)c2c1[nH]c1ccccc12 | 22 | 
24 | Brc1ccccc1-c1[nH]ccc2c3ccccc3nc1-2 | 10 | 
25 | Cc1nccc2c1[nH]c1cc(OCCC3(C)OCC(C)(C)CO3)ccc12 | 27 | 
26 | Clc1cccc(-c2nccc3c2[nH]c2ccccc23)c1 | 32 | 
27 | CC1=NCCc2c1[nH]c1cc(O)ccc21 | 13 | 
28 | Cc1[nH]ccc2c1[nH]c1cc(=O)ccc12 | 69 | 
29 | CC(=O)OCCOc1ccc2c(c1)[nH]c1c(C)nccc12 | 23 | 
30 | COc1ccc2[nH]c3c(C(=O)O)nccc3c2c1 | 12 | 
31 | O=[N+]([O-])c1cccc(-c2[nH]ccc3c4ccccc4nc2-3)c1 | 19 | 
32 | N#Cc1ccccc1-c1[nH]ccc2c3ccccc3nc1-2 | 8 | 
33 | CCCc1nccc2c1[nH]c1ccccc12 | 43 | 
34 | COc1ccc2c(c1)[nH]c1c(C)nccc12 [HARMINE] | 62 | IC50 [2]: > 250 µM; IC50 [4]: > 250 µM; IC50 [5]: > 250 µM; IC50 [6]: 35 µM; IC50 [7]: > 250 µM; IC50 (Protein kinase C (PKC)): > 250 µM
35 | COC(=O)Cc1nccc2c1[nH]c1ccccc12 | 11 | 
36 | Cc1nccc2c1[nH]c1cccc(F)c12 | 55 | 
37 | Cc1nccc2c1[nH]c1cc(OCCO)ccc12 | 4 | 
38 | Cc1ccc2[nH]c3c(C)nccc3c2c1 | 15 | 
39 | Cc1nccc2c1[nH]c1cc(OCCOC(=O)c3ccccc3)ccc12 | 13 | 
40 | Fc1ccc2c(c1)[nH]c1c(-c3ccccc3)nccc12 | 57 | 
41 | Clc1ccccc1-c1[nH]ccc2c3ccccc3nc1-2 | 69 | 
42 | COc1ccc2c3c([nH]c2c1)C(C)=NCC3 | 10 | 

Row | SMILES | inhibition [1] [%] | other results
43 | Cc1ccc(-c2[nH]ccc3c4ccccc4nc2-3)c(C)c1 | 5 | 
44 | O=[N+]([O-])c1ccccc1-c1[nH]ccc2c3ccccc3nc1-2 | 43 | 
45 | Cc1nccc2c1[nH]c1cc(OCCN3C(=O)c4ccccc4C3=O)ccc12 | 8 | 
46 | COc1cccc(-c2[nH]ccc3c4ccccc4nc2-3)c1 | 5 | 
47 | N#Cc1cccc(-c2nccc3c2[nH]c2ccccc23)c1 | 31 | 
48 | Cc1nccc2c1[nH]c1cc(OC(=O)NC3CCCCC3)ccc12 | 53 | 
49 | Cc1nccc2c1[nH]c1cc(OCC(N)=O)ccc12 | 15 | 
50 | FC(F)(F)c1[nH]ccc2c3ccccc3nc1-2 | 39 | 
51 | c1ccc2c(c1)[nH]c1cnccc12 | 37 | 
52 | Clc1ccc(-c2nccc3c2[nH]c2ccccc23)cc1 | 48 | 
53 | CC(C)c1nccc2c1[nH]c1ccccc12 | 44 | 
54 | Cc1[nH]cnc1-c1nccc2c1[nH]c1ccccc12 | 89 | IC50 [2]: > 250 µM; IC50 [3]: 25 µM; IC50 [4]: > 250 µM; IC50 [5]: > 250 µM; IC50 [6]: 6 µM; IC50 (Protein kinase C (PKC)): > 250 µM
55 | COc1ccc(-c2nccc3c2[nH]c2ccccc23)cc1 | 6 | 
56 | Cc1nccc2c1[nH]c1ccc(F)cc12 | 46 | 
57 | CC(C)(C)c1[nH]ccc2c3ccccc3nc1-2 | 50 | 
58 | CCCNC(=O)Oc1ccc2c(c1)[nH]c1c(C)nccc12 | 61 | 
59 | CCOc1ccc2c(c1)[nH]c1c(C)nccc12 | 43 | 
60 | Fc1ccc(-c2nccc3c2[nH]c2ccccc23)cc1 | 20 | 
61 | CCOC(COc1ccc2c(c1)[nH]c1c(C)nccc12)OCC | 1 | 
62 | CCCCOc1ccc2c(c1)[nH]c1c(C)nccc12 | 50 | 
